Measured values published in patent US9744164B2, “Neuroprotective polyphenol analogs” (Salk Institute for Biological Studies, priority 2011, dated 2017).
Like-named read-outs stand apart in the source and are kept apart here.

What was measured:
[1] = system: Nrf2; experiment: Nrf2 induction, SDS-PAGE and Western blotting of nuclear extracts; format: cell-based; settings: cells treated 1, 2 and 4 hr at most protective concentration
Experimental: SDS-PAGE and immunoblotting. For immunoblotting of Nrf2, nuclear extracts were prepared as described (Schreiber, et al., Nucleic Acids Res. (1989) 17 (15), 6419) from untreated cells and cells treated with the Fisetin derivatives for 1, 2 and 4 hr. Fisetin was used as a positive control. […] Protein concentrations were determined using the BCA protein assay (Pierce). Equal amounts of protein were solubilized in 2.5× SDS-sample buffer, separated on 10% SDS-polyacrylamide gels and transferred to nitrocellulose. Equal loading and transfer of the samples was confirmed by staining the nitrocellulose with Ponceau-S. Transfers were blocked for 1 hr at room temperature with 5% nonfat milk in TBS/0.1% Tween 20 and then incubated overnight at 4° C. in the primary antibody diluted in 5% BSA in TBS/0.05% Tween 20. The primary antibodies used were: anti-Nrf2 (#SC13032; 1/1000) from Santa Cruz Biotechnology (Santa Cruz, Calif.) and anti-β-actin (#5125; 1/20,000) from Cell Signaling (Beverly, Mass.). The transfers were rinsed with TB S/0.05% Tween 20 and incubated for 1 hr at room temperature in horseradish peroxidase-goat anti-rabbit or goat anti-mouse (Biorad, Hercules, Calif.) diluted 1/5000 in 5% nonfat milk in TBS/0.1% Tween 20. The immunoblots were developed with the Super Signal reagent (Pierce, Rockford, Ill.).
The transcription factor Nrf2 plays a key role in regulating GSH metabolism in many different cell types (Lewerenz, et al., Antioxidant & Redox Signaling. (2011) 14, 1449-1465). We have shown that Fisetin can induce Nrf2 and this correlates with its ability to enhance GSH levels (Maher, P. et al., Genes. Nutr. (2009) Sep. 10). To determine if the derivatives which can maintain GSH levels do so by increasing Nrf2 we looked at Nrf2 levels in the nuclei of derivative-treated cells using Fisetin as a positive control (Table 4). […] This was particularly true for the derivatives based on the quinoline scaffold where none of them increased Nrf2 despite being very effective at maintaining GSH levels.
The ability of the derivatives that maintain GSH levels to induce the transcription factor Nrf2 was assayed by SDS-PAGE and Western blotting of nuclear extracts of untreated and derivative-treated cells. Fisetin treatment was used as a positive control.

[2] = system: N9 microglial cells; experiment: anti-inflammatory assay, LPS-induced microglial activation (NO release); format: cell-based, mouse; settings: bacterial lipopolysaccharide, derivative 1-10 μM, 24 hr
Experimental: Anti-inflammatory assay. Mouse N9 microglial cells plated in DME with 7.5% DFCS were treated with 10 μg/ml bacterial lipopolysaccharide (Sigma) alone or in the presence of the Fisetin derivatives (1-10 μM) or Fisetin (10 μM) as a positive control. After 24 hr the medium was removed, spun briefly to remove floating cells and 100 μl assayed for NO using 100 μl of the Griess Reagent (Sigma) in a 96 well plate. After incubation for 10 min at room temperature the absorbance at 550 nm was read on a microplate reader.
Three secondary screens allowed assessment of three key activities of Fisetin that are highly relevant to stroke, as well as other neurological disorders: maintenance of glutathione (GSH), the major endogenous cellular antioxidant, inhibition of LPS-induced microglial activation, an indicator of anti-inflammatory activity and PC12 cell differentiation, a measure of neurotrophic activity. All of these activities are relevant to the nerve cell loss seen in stroke (Gelderblom, et al., Stroke. 2009, 40 (5), 1849-1857; Pandya, et al., Cent. Nerv. Syst. Agents. Med. Chem. (2011) Apr. 27; Lewerenz, et al., J. Neurochem. (2010) 113 (2), 502-504). […] To assess GSH maintenance, total intracellular GSH levels after a 24 hr treatment with the compound both in the absence and presence of glutamate, an inducer of GSH loss and oxidative stress (Tan, et al., Curr. Top. Med. Chem. (2001) 1, 497-506; Maher, et al., Free Radical Research. (2006) 40 (10), 1105-1111) was measured Inhibition of LPS-induced microglial activation was determined by treating N9 mouse microglial cells with LPS alone and in the presence of the compounds and assaying NO release into the medium 24 hr later (Zheng, et al., Int. Immunopharmacol. (2008) 8, (3), 484-494). PC12 cell differentiation was determined by treating PC12 cells with the compounds and looking at neurite outgrowth after 24 hr. In all cases, Fisetin was used as a positive control (Sagara, et al., J. Neurochem. (2004) 90, 1144-1155).
The roles of the four different hydroxyl groups in the activity of Fisetin were studied. […] Cell viability was determined after 24 hr by the MTT assay. The ability to maintain GSH (GSH) was determined by treating HT22 cells with different doses of each derivative (1-10 μM) in the presence of 5 mM glutamate. After 24 hr cell extracts were prepared and analyzed for total GSH. Fisetin (10 μM) was used as a positive control. The ability to induce PC12 cell differentiation (PC12 diff'n) was determined by treating PC12 cells in N2 medium with different doses of each derivative (1-10 μM) for 24 hr. Differentiation was assessed by visual inspection with Fisetin (10 μM) as a positive control. Anti-inflammatory activity (microglia) was assessed in N9 microglial cells treated with bacterial lipopolysaccharide alone or in the presence different doses of each derivative (1-10 μM) for 24 hr. Fisetin was used as a positive control. TEAC values, a measure of direct antioxidant activity, were determined using the ABTS+ decolorization assay.

[3] = system: embolic strokes in rabbits; settings: RSCEM, as published in the manuscript; cited from earlier work
[4] = system: embolic strokes in rabbits; experiment: rabbit small clot embolic stroke model (RSCEM); format: in vivo
Excerpt: The ability of polyphenol analogs to treat, prevent and/or mitigate one or more symptoms of stroke can also be evaluated in in vivo assays. Such assays are known in the art and find use. One applicable in vivo screening assay is the rabbit clot embolic stroke model, discussed, e.g., in Lapchak, et al., Stroke (2002) 33(9):2279-84 and Lapchak, Exp Neurol. (2007) 205(2):407-13. The rabbit small clot embolic stroke model (RSCEM) and rabbit large clot embolic stroke model (RLCEM) can be used to determine the potential neuroprotective properties and safety profile of test polyphenol analogs after an embolic stroke. Rabbits are embolized by injecting small blood clots (RSCEM) or large blood clots (RLCEM) into the cerebral circulation. Behavioral analysis is conducted 24 hours later, allowing for determination of the effective stroke dose (ES50) or clot amount (milligrams) that produces severe neurological deficits in 50% of rabbits. A drug is considered neuroprotective if it increases the ES50 compared with the vehicle-treated control group.
Either vehicle or bolus injections of chlorogenic acid were administered intravenously over 1 minute starting 5 minutes following embolization using a suspension of small-sized blood clots. In this series of studies, CGA was administered at 50 mg/kg. Behavioral analysis was conducted at 24 hours following treatment, which allowed for the construction of quantal dose-response analysis curves. […] For the superimposed graphs, normal animals are plotted on the y-axis at 0% and abnormal animals are plotted at 100%. […] Moreover, CGA increased the P50 value (the clot dose that produces abnormality in 50% of a treatment group) compared to vehicle control. For a detailed discussion of the methods used to fit the quantal data to a sigmoidal curve, see Zivin and Waud. The pharmacology of chlorogenic acid in the rabbit small clot embolic stroke model (RSCEM) has been published (Lapchak, Exp Neurol. 2007 205(2):407-13). In the manuscript, it is shown that CGA has a therapeutic window of 60 minutes in the RSCEM. FIG. 2 presents the therapeutic window data.
Using the RSCEM assay described above for CGA, the effects of Fisetin (50 mg/kg) on behavioral outcome measured 24 hours following embolization is tested.

[5] = system: PC12 cells; experiment: glucose starvation assay; format: cell-based; settings: PC12 cells starved for glucose, MTT 24 hr
Experimental: FIG. 5C—PC12 cells were glucose-deprived then were incubates in the absence or presence of Baicalein. Cell viability was determined 24 hr later using the MTT assay. […] When these cells are starved for glucose, there is approximately 70% maximal survival in the presence of NGF. Baicalein promotes over 80% survival (FIG. 5C).

Row | Molecule | Nrf2 (induction of transcription factor Nrf2) [1] | microglia (anti-inflammatory activity) [2] [%] | also measured
1 | Cc1cc(O)c(C(=O)/C=C/c2ccc(O)c(O)c2)cc1C [CMS-011, (E)-3-(3,4-dihydroxyphenyl)-1-(2-hydroxy-4,5-dimethylphenyl)prop-2-en-1-one] | Yes | 94 | 
2 | CN(C)c1ccc(-c2oc3c(ccc4ccccc43)c(=O)c2O)cc1 [CMS-118, 2-(4-(dimethylamino)phenyl)-3-hydroxy-4H-benzo[h]chromen-4-one] | No | 0 | 
3 | Cc1cc2oc(-c3ccc(N(C)C)cc3)c(O)c(=O)c2cc1C [CMS-117, 2-(4-(dimethylamino)phenyl)-3-hydroxy-6,7-dimethyl-4H-chromen-4-one] | No | 11 | 
4 | O=C(/C=C/c1ccc(O)c(O)c1)O[C@@H]1C[C@](O)(C(=O)O)C[C@@H](O)[C@H]1O [Chlorogenic Acid, 1,3,4,5-tetrahydroxy-cyclohexanecarboxylic acid 3-(3,4-dihydroxycinnamate)] |  |  | therapeutic window [3]: 60 min; behavior when administered 1 hour following embolization ([4]; 1 hour following embolization): effective at improving behavior; behavior when administered 3 hours following embolization ([4]; 3 hours following embolization): neither improve behavior; therapeutic window ([4]; time post-embolization, FIG. 2): 60 min
5 | Cc1cc2oc(-c3ccc(N4CCCC4)cc3)c(O)c(=O)c2cc1C [CMS-122, 3-hydroxy-6,7-dimethyl-2-(4-(pyrrolidin-1-yl)phenyl)-4H-chromen-4-one] | No | 0 | 
6 | O=C(/C=C/c1ccc(O)c(O)c1)c1ccc2ccccc2c1O [CMS-034, (E)-3-(3,4-dihydroxyphenyl)-1-(1-hydroxynaphthalen-2-yl)prop-2-en-1-one] | Yes | 75 | 
7 | NGF: NGF, comparator giving approximately 70% maximal survival of glucose-starved PC12 cells |  |  | survival [5]: approximately 70%
